# Assays:
# RPMI-8226 = assay: Induction of necrosis in human RPMI-8226 cells assessed as LDH release at 0.73 uM; type: functional
# [1] = target: Voltage-gated inwardly rectifying potassium channel KCNH2 (Homo sapiens, UniProt Q12809); assay: Inhibition of hERG measured by fluorescence polarization assay
# Voltage-gated inwardly rectifying potassium channel KCNH2, sequence (Q12809 whole entry): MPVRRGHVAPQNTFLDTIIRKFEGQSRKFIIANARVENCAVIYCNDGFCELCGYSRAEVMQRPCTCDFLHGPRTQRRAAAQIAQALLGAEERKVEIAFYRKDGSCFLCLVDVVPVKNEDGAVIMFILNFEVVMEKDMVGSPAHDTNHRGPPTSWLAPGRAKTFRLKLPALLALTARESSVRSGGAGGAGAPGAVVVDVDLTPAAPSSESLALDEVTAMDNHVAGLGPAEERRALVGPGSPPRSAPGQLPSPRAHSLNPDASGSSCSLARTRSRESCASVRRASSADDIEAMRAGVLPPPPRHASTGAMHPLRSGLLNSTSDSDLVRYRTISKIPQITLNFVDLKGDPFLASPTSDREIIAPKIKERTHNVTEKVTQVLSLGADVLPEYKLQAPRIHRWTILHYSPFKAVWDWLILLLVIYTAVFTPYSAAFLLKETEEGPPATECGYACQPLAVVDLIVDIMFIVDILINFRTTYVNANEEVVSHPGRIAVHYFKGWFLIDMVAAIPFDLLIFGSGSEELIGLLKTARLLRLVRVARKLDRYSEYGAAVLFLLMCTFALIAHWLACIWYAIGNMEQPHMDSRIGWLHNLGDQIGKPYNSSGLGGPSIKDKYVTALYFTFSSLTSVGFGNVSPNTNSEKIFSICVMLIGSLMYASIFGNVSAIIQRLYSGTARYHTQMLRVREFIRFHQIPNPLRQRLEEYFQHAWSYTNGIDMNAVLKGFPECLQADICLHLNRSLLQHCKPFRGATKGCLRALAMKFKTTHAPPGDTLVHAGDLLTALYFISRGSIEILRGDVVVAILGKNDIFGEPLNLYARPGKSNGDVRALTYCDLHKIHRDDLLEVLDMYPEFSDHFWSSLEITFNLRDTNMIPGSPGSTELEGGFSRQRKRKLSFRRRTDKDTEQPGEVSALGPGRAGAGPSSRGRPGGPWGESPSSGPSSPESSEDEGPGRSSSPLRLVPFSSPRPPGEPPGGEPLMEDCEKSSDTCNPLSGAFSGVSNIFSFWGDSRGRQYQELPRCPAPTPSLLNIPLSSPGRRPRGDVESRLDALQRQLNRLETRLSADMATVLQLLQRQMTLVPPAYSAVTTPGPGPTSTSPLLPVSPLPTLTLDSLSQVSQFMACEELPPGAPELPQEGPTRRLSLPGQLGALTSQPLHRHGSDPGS
Structure (SMILES),Activity (RPMI-8226),IC50 [1]
O=C(NCCCNc1cc(-c2cn(-c3ccccc3)nc2-c2cccc(O)c2)ccn1)Nc1cccc(C(F)(F)F)c1,6.7%,–
O=C(NCCCNc1cc(-c2cn(-c3ccccc3)nc2-c2cccc(O)c2)ccn1)Nc1ccc(F)cc1,–,> 50 µM

# From ChEMBL document CHEMBL5113453, “Design, synthesis, and biological evaluation of a new series of pyrazole derivatives: Discovery of potent and selective JNK3 kinase inhibitors” (Bioorg Med Chem, 2022)
